Laboratory results taken from ChEMBL document CHEMBL4480451, “Novel nonapeptide GLP (28-36) amide derivatives with improved hypoglycemic and body weight lowering effects” (2019).
Calls of active or inactive are those of the source. No cut-off for these calls is given here.

Columns and labels:
Mus musculus [1] = test: Hypoglycemic activity in ICR mouse assessed as plasma glucose level at 1 umol/kg, ip pretreated 30 mins prior to glucose challenge and measured at 15 mins post challenge by intraperitoneal glucose tolerance test (reference value: 15.3 +/- 1.2 mmol/L); type: functional
Mus musculus [2] = test: Hypoglycemic activity in ICR mouse assessed as reduction in plasma glucose AUC (0 to 120 mins) at 1 umol/kg, ip pretreated 30 mins prior to glucose challenge […] by intraperitoneal glucose tolerance test; type: functional, organism-based
INS1 [3] = test: Cytoprotective activity against H2O2-induced oxidative stress-mediated cell death in rat INS-1 cells assessed as reduction in cell viability at 10 uM after 24 hrs by MTT assay (reference value: 37%); type: functional
INS1 [4] = test: Cytoprotective activity against STZ-mediated cell death in rat INS-1 cells assessed as reduction in cell viability at 1 uM after 24 hrs by MTT assay (reference value: 50%); type: functional
INS1 [5] = test: Cytoprotective activity against STZ-mediated cell death in rat INS-1 cells assessed as reduction in cell viability at 10 uM after 24 hrs by MTT assay (reference value: 50%); type: functional
INS1 [6] = test: Cytoprotective activity against glucolipotoxicity-mediated cell death in rat INS-1 cells assessed as reduction in cell viability at 10 uM after 24 hrs by MTT assay (reference value: 31%); type: functional
INS1 [7] = test: Cytoprotective activity against H2O2-induced oxidative stress-mediated cell death in rat INS-1 cells assessed as reduction in apoptotic cells at 0.1 to 10 uM after 24 hrs by Annexin V/propidium iodide staining-based flow cytometric analysis; type: functional
INS1 [8] = test: Cytoprotective activity against STZ-mediated cell death in rat INS-1 cells assessed as reduction in apoptotic cells at 0.1 to 10 uM after 24 hrs by Annexin V/propidium iodide staining-based flow cytometric analysis; type: functional
INS1 [9] = test: Cytoprotective activity against glucolipotoxicity-mediated cell death in rat INS-1 cells assessed as reduction in apoptotic cells at 0.1 to 10 uM after 24 hrs by Annexin V/propidium iodide staining-based flow cytometric analysis; type: functional
Mus musculus [10] = test: Antidiabetic activity in STZ-induced diabetic ICR mouse model assessed as fasting blood glucose level at 0.1 umol/kg, ip for 5 consecutive days by glucometery (reference value: 17.7 +/- 1.1 mM); type: functional
Mus musculus [11] = test: Antidiabetic activity in STZ-induced diabetic ICR mouse model assessed as fasting blood glucose level at 1 umol/kg, ip for 5 consecutive days by glucometery (reference value: 17.7 +/- 1.1 mM); type: functional
Mus musculus [12] = test: Antidiabetic activity in STZ-induced diabetic ICR mouse model assessed as fasting blood glucose level at 10 umol/kg, ip for 5 consecutive days by glucometery (reference value: 17.7 +/- 1.1 mM); type: functional
Mus musculus [13] = test: Antiobesity activity in C57BL/6J mouse model of diet-induced obesity assessed as reduction in cumulative food intake at 1 umol/kg, ip qd for 4 weeks relative to control; type: functional; parameters: scale not given: the % may be the effect or the level left
Mus musculus [14] = test: Antiobesity activity in C57BL/6J mouse model of diet-induced obesity assessed as reduction in body weight at 1 umol/kg, ip qd for 4 weeks; type: functional, organism-based
Mus musculus [15] = test: Antiobesity activity in C57BL/6J mouse model of diet-induced obesity assessed as increase in small brown adipocytes at 1 umol/kg, ip qd for 4 weeks by haematoxylin and eosin staining-based assay; type: functional, organism-based
Mus musculus [16] = test: Antiobesity activity in C57BL/6J mouse model of diet-induced obesity assessed as reduction in circulating leptin level at 1 umol/kg, ip qd for 4 weeks; type: functional, organism-based
Mus musculus [17] = test: Antiobesity activity in C57BL/6J mouse model of diet-induced obesity assessed as reduction in ALT levels at 1 umol/kg, ip qd for 4 weeks; type: functional, organism-based
Mus musculus [18] = test: Antiobesity activity in C57BL/6J mouse model of diet-induced obesity assessed as reduction in AST levels at 1 umol/kg, ip qd for 4 weeks; type: functional, organism-based
Mus musculus [19] = test: Antiobesity activity in C57BL/6J mouse model of diet-induced obesity assessed as reduction in serum total cholesterol levels at 1 umol/kg, ip qd for 4 weeks; type: functional, organism-based
Mus musculus [20] = test: Antiobesity activity in C57BL/6J mouse model of diet-induced obesity assessed as reduction in triglyceride levels at 1 umol/kg, ip qd for 4 weeks; type: functional, organism-based
Mus musculus [21] = test: Antiobesity activity in C57BL/6J mouse model of diet-induced obesity assessed as reduction in LDL/HDL levels at 1 umol/kg, ip qd for 4 weeks; type: functional, organism-based
Mus musculus [22] = test: Antidiabetic activity in STZ-induced diabetic ICR mouse model assessed as reduction in HbA1c level at 0.1 to 10 umol/kg, ip for 5 consecutive days; type: functional, organism-based
Mus musculus [23] = test: Antiobesity activity in C57BL/6J mouse model of diet-induced obesity assessed as reduction in circulating adiponectin level at 1 umol/kg, ip qd for 4 weeks; type: functional, organism-based

H-FIAWLVKGRKKK-NH2
Activity (Mus musculus [1]): 10.8 mmol/L
Activity (Mus musculus [2]): Active
Activity (INS1 [3]): 17%
Activity (INS1 [4]): 36%
Activity (INS1 [5]): 29%
Activity (INS1 [6]): 21%
Activity (INS1 [7]): Active
Activity (INS1 [8]): Active
Activity (INS1 [9]): Active
Activity (Mus musculus [10]): 16.5 mM
Activity (Mus musculus [11]): 14.9 mM
Activity (Mus musculus [12]): 15.03 mM
Activity (Mus musculus [13]): 12.7%
Activity (Mus musculus [14]): Active
Activity (Mus musculus [15]): Active
Activity (Mus musculus [16]): inactive
Activity (Mus musculus [17]): Active
Activity (Mus musculus [18]): Active
Activity (Mus musculus [19]): Active
Activity (Mus musculus [20]): Active
Activity (Mus musculus [21]): inactive
Activity (Mus musculus [22]): inactive
Activity (Mus musculus [23]): inactive

H-FIAWLVKGRKKKKKK-NH2
Activity (Mus musculus [1]): 11.9 mmol/L
Activity (Mus musculus [2]): Active
